Here are results for 26 molecules from patent US9187472B2 (AbbVie Inc., priority 2012, dated 2015).

The target in test [1] is NAMPT (human, recombinant, C-terminally His-tagged) (Homo sapiens, UniProt P43490). In words: Time-Resolved Fluorescence Resonance Energy Transfer (TR-FRET) Binding Assay of NAMPT. Conditions: without substrates; 6.8 nM NAMPT, 200 nM probe, 3 hours equilibration. Summed up:
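Probe displacement by compound was measured with 6.8 nM NAMPT, 200 nM Oregon Green 488-conjugated nicotinamide-competitive inhibitor probe and 1 nM Tb-anti-His antibody in 50 mM HEPES pH 7.5, 100 mM NaCl, 10 mM MgCl2, 1 mM DTT, 1% glycerol, 2% DMSO (final). After 3 h at room temperature, TR-FRET was read; IC50 from four-parameter logistic fit.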
(In general: Time-resolved FRET reads energy transfer from a long-lived donor to a nearby acceptor.)

The target in a further test is NAMPT (Homo sapiens, UniProt P43490). In words: TR-FRET Binding Assay of NAMPT with PRPP. The settings on record: with 200 μM PRPP and 2.5 mM ATP; 2 nM NAMPT, 2 nM probe, 16 hours equilibration. Summed up: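 Run in the presence of substrates (200 μM PRPP, 2.5 mM ATP) with final 2 nM NAMPT, 2 nM probe, 1 nM Tb-anti-His antibody and 2% DMSO. Mixtures equilibrated 16 h before TR-FRET measurement so test compounds could be enzymatically modified.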

Another test deals with PC3 cells. In words: NAMPT Cell Proliferation Assay. Conditions: Homo sapiens, PC-3, 120 h, 5 days incubation, cell viability by Cell Titer Glo. In kind it is cell-based. Put shortly:
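Seed PC3 at 500 cells/well (RPMI, 10% HI-FBS), attach overnight; add compound, 10-fold series 10 μM → 1×10^−5 μM; incubate 5 d, 37° C/5% CO2; luminescent viability readout; fit % inhibition sigmoidally for IC50.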
In general terms: In ATP-based viability assays light output follows the ATP content of the culture.

Sequence of NAMPT (P43490 whole entry): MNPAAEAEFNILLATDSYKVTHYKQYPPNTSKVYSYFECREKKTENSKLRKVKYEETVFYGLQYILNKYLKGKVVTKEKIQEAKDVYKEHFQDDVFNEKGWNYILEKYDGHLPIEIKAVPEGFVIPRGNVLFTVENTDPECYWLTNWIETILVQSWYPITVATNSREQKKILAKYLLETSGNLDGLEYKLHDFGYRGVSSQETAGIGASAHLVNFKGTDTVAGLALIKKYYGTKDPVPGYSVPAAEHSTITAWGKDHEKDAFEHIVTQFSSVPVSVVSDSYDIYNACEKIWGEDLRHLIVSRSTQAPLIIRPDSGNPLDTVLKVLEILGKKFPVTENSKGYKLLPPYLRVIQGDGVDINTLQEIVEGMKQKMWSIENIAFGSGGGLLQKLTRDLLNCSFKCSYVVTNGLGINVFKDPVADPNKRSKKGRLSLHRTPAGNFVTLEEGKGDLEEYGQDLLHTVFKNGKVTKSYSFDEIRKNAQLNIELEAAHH
Sequence of NAMPT (human, recombinant, C-terminally His-tagged) (P43490 whole entry): as above

Take `O=C(NCc1ccn2ccnc2c1)c1ccc(C2CN(C(=O)c3ccncc3)C2)cc1` [Example 658, N-(imidazo[1,2-a]pyridin-7-ylmethyl)-4-[1-(pyridin-4-ylcarbonyl)azetidin-3-yl]benzamide]: the IC50 – broadly, the point on the concentration scale where inhibition reaches its midpoint – in test [1] worked out at 137 nM; on NAMPT it was 0.76 nM; in the test on PC3 cells, 60.8 nM.
With `O=C(NCc1ccn2ccnc2c1)c1ccc(C2CN(C(=O)c3cccnc3)C2)cc1` [Example 659, N-(imidazo[1,2-a]pyridin-7-ylmethyl)-4-[1-(pyridin-3-ylcarbonyl)azetidin-3-yl]benzamide], the IC50 in test [1] was found to be 646 nM; on NAMPT it was 0.71 nM; in the test on PC3 cells, 223 nM.
Turning to `O=C(NCc1ccn2ccnc2c1)c1ccc(C2CN(C(=O)C3CCCCC3)C2)cc1` [Example 660, 4-[1-(cyclohexylcarbonyl)azetidin-3-yl]-N-(imidazo[1,2-a]pyridin-7-ylmethyl)benzamide], the IC50 in test [1] stood at 282 nM; on NAMPT, 0.693 nM; with PC3 cells, 70.9 nM.
In the same order, the values of `O=C(NCc1ccn2ccnc2c1)c1ccc(C2CN(C(=O)c3ccccn3)C2)cc1` [Example 661, N-(imidazo[1,2-a]pyridin-7-ylmethyl)-4-[1-(pyridin-2-ylcarbonyl)azetidin-3-yl]benzamide] are 462 nM, 0.641 nM and 67.2 nM.
As to `O=C(NCc1ccn2ccnc2c1)c1ccc(C2CN(C(=O)c3ccoc3)C2)cc1` [Example 662, 4-[1-(furan-3-ylcarbonyl)azetidin-3-yl]-N-(imidazo[1,2-a]pyridin-7-ylmethyl)benzamide], the values for the IC50 (in test [1]; at NAMPT; in the test with PC3 cells) were 318 nM, 0.671 nM and 93.4 nM, respectively.
The corresponding values for `O=C(NCc1ccn2ccnc2c1)c1ccc(C2CN(C(=O)c3ccncn3)C2)cc1` [Example 663, N-(imidazo[1,2-a]pyridin-7-ylmethyl)-4-[1-(pyrimidin-4-ylcarbonyl)azetidin-3-yl]benzamide] are 653 nM, 1.07 nM and 90 nM.
In the same order, the values of `O=C(NCc1ccn2ccnc2c1)c1ccc(C2CN(C(=O)c3nccs3)C2)cc1` [Example 664, N-(imidazo[1,2-a]pyridin-7-ylmethyl)-4-[1-(1,3-thiazol-2-ylcarbonyl)azetidin-3-yl]benzamide] are 214 nM, 0.733 nM and 71.5 nM.
The corresponding values for `CC1(C(=O)N2CC(c3ccc(C(=O)NCc4ccn5ccnc5c4)cc3)C2)CCCCC1` [Example 665, N-(imidazo[1,2-a]pyridin-7-ylmethyl)-4-{1-[(1-methylcyclohexyl)carbonyl]azetidin-3-yl}benzamide] are 123 nM, 0.357 nM and 7.28 nM.
Regarding `CC(C)C(C)C(=O)N1CC(c2ccc(C(=O)NCc3ccn4ccnc4c3)cc2)C1` (stereo not drawn) [Example 666, 4-[1-(2,3-dimethylbutanoyl)azetidin-3-yl]-N-(imidazo[1,2-a]pyridin-7-ylmethyl)benzamide], the figures for the IC50 (in test [1]; on NAMPT; in the test on PC3 cells) were 193 nM, 0.855 nM and 5.18 nM, respectively.
In the case of `Cc1cccc(C(=O)N2CC(c3ccc(C(=O)NCc4ccn5ccnc5c4)cc3)C2)c1` [Example 667, N-(imidazo[1,2-a]pyridin-7-ylmethyl)-4-[1-(3-methylbenzoyl)azetidin-3-yl]benzamide], the half-maximal inhibitory concentration (IC50) in test [1] came out at 226 nM; on NAMPT it was 0.798 nM; with PC3 cells, 45.8 nM.
Take `O=C(NCc1ccn2ccnc2c1)c1ccc(C2CN(C(=O)c3ccsc3)C2)cc1` [Example 668, N-(imidazo[1,2-a]pyridin-7-ylmethyl)-4-[1-(thiophen-3-ylcarbonyl)azetidin-3-yl]benzamide]: the IC50 in test [1] is 263 nM; at NAMPT, 1.1 nM; with PC3 cells it was 80.3 nM.
The corresponding values for `O=C(NCc1ccn2ccnc2c1)c1ccc(C2CN(C(=O)c3cccc(OC(F)(F)F)c3)C2)cc1` [Example 669, N-(imidazo[1,2-a]pyridin-7-ylmethyl)-4-{1-[3-(trifluoromethoxy)benzoyl]azetidin-3-yl}benzamide] are 407 nM, 0.807 nM and 686 nM.
In the same order, the values of `Cc1ccsc1C(=O)N1CC(c2ccc(C(=O)NCc3ccn4ccnc4c3)cc2)C1` [Example 670, N-(imidazo[1,2-a]pyridin-7-ylmethyl)-4-{1-[(3-methylthiophen-2-yl)carbonyl]azetidin-3-yl}benzamide] are 62 nM, 0.545 nM and 9.92 nM.
In the same order, the values of `O=C(NCc1ccn2ccnc2c1)c1ccc(C2CN(C(=O)c3cccc(C(F)(F)F)c3)C2)cc1` [Example 671, N-(imidazo[1,2-a]pyridin-7-ylmethyl)-4-{1-[3-(trifluoromethyl)benzoyl]azetidin-3-yl}benzamide] are 611 nM, 1.06 nM and 684 nM.
In the case of `CC(C)S(=O)(=O)N1CCC(c2ccc(C(=O)NCc3ccn4ccnc4c3)cc2)C1` (stereo not drawn) [Example 672, N-(imidazo[1,2-a]pyridin-7-ylmethyl)-4-[1-(propan-2-ylsulfonyl)pyrrolidin-3-yl]benzamide], the IC50 in test [1] was 313 nM; at NAMPT, 0.504 nM; with PC3 cells it was 80 nM.
As to `COCCn1cc(-c2ccc(NC(=O)NCc3ccn4ccnc4c3)cc2)cn1` [Example 673, 1-(imidazo[1,2-a]pyridin-7-ylmethyl)-3-{4-[1-(2-methoxyethyl)-1H-pyrazol-4-yl]phenyl}urea], the results for the IC50 (in test [1]; on NAMPT; in the test on PC3 cells) were 452 nM, 0.697 nM and 122 nM, respectively.
For the molecule `O=C(NCc1ccn2ccnc2c1)Nc1ccc(-c2cnn(CC3CCCO3)c2)cc1` (stereo not drawn) [Example 674, 1-(imidazo[1,2-a]pyridin-7-ylmethyl)-3-{4-[1-(tetrahydrofuran-2-ylmethyl)-1H-pyrazol-4-yl]phenyl}urea], the IC50 stood at 297 nM in test [1], 0.535 nM at NAMPT and 32.4 nM in the test on PC3 cells.
On to `O=C(NCc1ccn2ccnc2c1)Nc1ccc(-c2cnn(CC3CCOCC3)c2)cc1` [Example 675, 1-(imidazo[1,2-a]pyridin-7-ylmethyl)-3-{4-[1-(tetrahydro-2H-pyran-4-ylmethyl)-1H-pyrazol-4-yl]phenyl}urea], for which the values for the IC50 (in test [1]; at NAMPT; with PC3 cells) were 376 nM, 2.07 nM and 69.8 nM, respectively.
`O=C(NCc1ccc2ncnn2c1)c1ccc(-c2cnn(CC3COCCO3)c2)s1` (stereo not drawn) [Example 676, 5-[1-(1,4-dioxan-2-ylmethyl)-1H-pyrazol-4-yl]-N-([1,2,4]triazolo[1,5-a]pyridin-6-ylmethyl)thiophene-2-carboxamide]: the IC50 worked out at 126 nM in test [1], 6.98 nM at NAMPT and 78.7 nM in the test on PC3 cells.
In the same order, the values of `O=C(NCc1ccn2ccnc2c1)c1ccc(C2CCN(C(=O)c3ccccc3F)CC2)s1` [Example 677, 5-[1-(2-fluorobenzoyl)piperidin-4-yl]-N-(imidazo[1,2-a]pyridin-7-ylmethyl)thiophene-2-carboxamide] are 1.77 nM, 0.796 nM and 0.613 nM.
In the same order, the values of `CC(C)(C)OC(=O)N1CCC(c2ccc(C(=O)NCc3cn4ccnc4cn3)cc2)CC1` [Example 678, tert-butyl 4-{4-[(imidazo[1,2-a]pyrazin-6-ylmethyl)carbamoyl]phenyl}piperidine-1-carboxylate] are 41.2 nM, 0.23 nM and 15.1 nM.
The corresponding values for `O=C(CC1CCCC1)Nc1ccc(C(=O)NCc2cn3ccnc3cn2)cc1` [Example 679, 4-[(cyclopentylacetyl)amino]-N-(imidazo[1,2-a]pyrazin-6-ylmethyl)benzamide] are 22.8 nM, 1.74 nM and 10.9 nM.
Take `CC(C)(C)OC(=O)N1CCC(c2ccc(NC(=O)NCc3cn4ccnc4cn3)cc2)CC1` [Example 680, tert-butyl 4-(4-{[(imidazo[1,2-a]pyrazin-6-ylmethyl)carbamoyl]amino}phenyl)piperidine-1-carboxylate]: the IC50 is 37.1 nM in test [1], 2.38 nM on NAMPT and 629 nM in the test with PC3 cells.
On to `O=C(CC1CCCC1)Nc1ccc(NC(=O)NCc2cn3ccnc3cn2)cc1` [Example 681, 2-cyclopentyl-N-(4-{[(imidazo[1,2-a]pyrazin-6-ylmethyl)carbamoyl]amino}phenyl)acetamide], for which the IC50 worked out at 27.6 nM in test [1], 2 nM on NAMPT and 145 nM in the test on PC3 cells.
In the same order, the values of `O=C(NCc1ccn2ccnc2c1)c1ccc(C2CCN(S(=O)(=O)c3ccccc3)CC2)cc1` [Example 682, N-(imidazo[1,2-a]pyridin-7-ylmethyl)-4-[1-(phenylsulfonyl)piperidin-4-yl]benzamide] are 607 nM, 1.58 nM and 771 nM.
In the same order, the values of `CC(C)S(=O)(=O)N1CCC(c2ccc(C(=O)NCc3ccn4ccnc4c3)cc2)CC1` [Example 683, N-(imidazo[1,2-a]pyridin-7-ylmethyl)-4-[1-(propan-2-ylsulfonyl)piperidin-4-yl]benzamide] are 154 nM, 1.19 nM and 36.1 nM.
